We go through 23 compounds from ChEMBL document CHEMBL1177670 (Bioorg Med Chem, 2010).

In assay [1] the target is T1, D(4) dopamine receptor (Homo sapiens, UniProt P21917).
T1 sequence (P21917 whole entry): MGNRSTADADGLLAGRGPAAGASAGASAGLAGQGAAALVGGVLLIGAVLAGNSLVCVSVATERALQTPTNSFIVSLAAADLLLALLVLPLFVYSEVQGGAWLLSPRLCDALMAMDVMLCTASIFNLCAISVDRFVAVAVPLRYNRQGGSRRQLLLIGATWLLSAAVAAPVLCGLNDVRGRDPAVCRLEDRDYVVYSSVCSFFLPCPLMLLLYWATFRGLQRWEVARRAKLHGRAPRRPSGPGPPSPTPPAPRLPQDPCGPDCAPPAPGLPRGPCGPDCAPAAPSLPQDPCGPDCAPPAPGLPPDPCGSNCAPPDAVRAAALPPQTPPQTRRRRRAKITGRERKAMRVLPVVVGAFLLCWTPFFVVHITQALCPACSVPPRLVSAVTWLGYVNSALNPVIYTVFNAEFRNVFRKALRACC

For assay [2], the target named is T2, D(3) dopamine receptor (Homo sapiens, UniProt P35462).
T2 sequence (P35462 whole entry): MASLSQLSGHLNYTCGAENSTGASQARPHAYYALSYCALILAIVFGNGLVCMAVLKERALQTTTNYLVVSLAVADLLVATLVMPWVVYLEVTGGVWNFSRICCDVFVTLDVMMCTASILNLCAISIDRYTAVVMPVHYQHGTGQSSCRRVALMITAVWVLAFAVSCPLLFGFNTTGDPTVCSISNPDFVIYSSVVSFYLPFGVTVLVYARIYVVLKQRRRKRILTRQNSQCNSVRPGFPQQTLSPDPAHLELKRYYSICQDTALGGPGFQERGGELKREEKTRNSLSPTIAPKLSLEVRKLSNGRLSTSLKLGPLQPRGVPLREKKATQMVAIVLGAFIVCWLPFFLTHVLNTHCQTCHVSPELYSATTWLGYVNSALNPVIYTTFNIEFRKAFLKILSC
The target in assay [3] is T1, D(4) dopamine receptor. Kind of assay: biochemical.
Assay [4] has as its target T2, D(3) dopamine receptor. Kind of assay: biochemical.
Assay [5] deals with T3, D(2) dopamine receptor (Homo sapiens, UniProt P14416). Description: biochemical.
T3 sequence (P14416 whole entry): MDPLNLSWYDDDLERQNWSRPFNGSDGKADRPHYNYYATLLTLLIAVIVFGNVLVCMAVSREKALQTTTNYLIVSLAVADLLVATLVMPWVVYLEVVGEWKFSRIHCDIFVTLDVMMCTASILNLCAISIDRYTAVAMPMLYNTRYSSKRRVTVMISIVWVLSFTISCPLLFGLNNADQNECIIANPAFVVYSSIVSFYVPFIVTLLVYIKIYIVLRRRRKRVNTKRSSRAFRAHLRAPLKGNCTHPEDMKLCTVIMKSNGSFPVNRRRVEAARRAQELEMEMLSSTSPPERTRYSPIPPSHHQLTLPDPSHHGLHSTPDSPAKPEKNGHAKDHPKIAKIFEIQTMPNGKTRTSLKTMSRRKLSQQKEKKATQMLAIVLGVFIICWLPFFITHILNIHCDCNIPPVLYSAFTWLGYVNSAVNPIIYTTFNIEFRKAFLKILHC
For assay [6], the target named is T4, Sigma non-opioid intracellular receptor 1 (Cavia porcellus, UniProt Q60492).
T4 sequence (Q60492 whole entry): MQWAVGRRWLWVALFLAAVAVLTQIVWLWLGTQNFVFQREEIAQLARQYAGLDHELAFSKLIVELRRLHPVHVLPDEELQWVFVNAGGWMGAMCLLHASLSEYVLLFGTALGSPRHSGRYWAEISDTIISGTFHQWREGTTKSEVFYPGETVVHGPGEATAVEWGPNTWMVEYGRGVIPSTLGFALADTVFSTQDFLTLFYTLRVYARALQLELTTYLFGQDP
Description: (§1) Displacement of [3H](+)-pentazocine from sigma 1 receptor in guinea pig brain homogenates after 1 hr by liquid scintillation counting
Assay [7] has as its target T3, D(2) dopamine receptor.
In assay [8] the target is T4, Sigma non-opioid intracellular receptor 1. Description: biochemical.
Description: as §1
Assay [9] has as its target T3, D(2) dopamine receptor. Kind of assay: Antagonist at human dopamine D2 long receptor expressed in HEK293 cells assessed as inhibition of forskolin-induced adenylyl cyclase activity at 10 nM after 20 mins by spectrophotometric analysis in presence of quinpirole. The class given is functional, cell-based.

Activity calls are given as the source filed them. The rule behind the calls is not given here.

One may read the Ki as a measure of affinity in units of concentration, obtained from inhibition or displacement. A high value points to lower affinity.

For `OC1(c2ccc(Cl)cc2)CCN(Cc2c[nH]c3ccccc23)CC1`, the inhibitory constant (Ki) turned out to be 449 nM at D(4) dopamine receptor [1] and 104 nM on D(3) dopamine receptor [2].
As for `OC1(c2ccc(Br)cc2)CCN(Cc2c[nH]c3cccc(OCCF)c23)CC1`, the inhibitory constant (Ki) turned out to be 668 nM on D(4) dopamine receptor [3] and 849 nM on D(3) dopamine receptor [4].
With `OC1(c2ccc(Br)cc2)CCN(Cc2c[nH]c3ncccc23)CC1`, the Ki at D(4) dopamine receptor [3] amounted to 620 nM; on D(3) dopamine receptor [4], 2980 nM; at D(2) dopamine receptor [5], 212 nM.
Consider `CN1CN(c2ccccc2)C2(CCN(Cc3coc4ccccc34)CC2)C1=O`, for which the values for the Ki at D(4) dopamine receptor [3], at D(3) dopamine receptor [4] and on D(2) dopamine receptor [5] were 492 nM, 2.1 nM and 7.1 nM, respectively.
On to `OC1(c2ccc(Br)cc2)CCN(Cc2cc3ccccc3o2)CC1`, for which the inhibition constant (Ki) at D(4) dopamine receptor [3] came to 254 nM.
On to `OC1(c2ccc(I)cc2)CCN(Cc2coc3ccccc23)CC1`, for which the affinity at D(2) dopamine receptor [5] corresponds to a Ki of 2.4 nM.
For `COc1ccc2[nH]cc(CN3CCC(O)(c4ccc(Br)cc4)CC3)c2c1`, the Ki was determined as 700 nM at D(4) dopamine receptor [1], 108 nM in [6] and 2.5 nM on D(2) dopamine receptor [7].
On to `COc1cccc2[nH]cc(CN3CCC(O)(c4ccc(Br)cc4)CC3)c12`, for which the inhibition constant (Ki) on D(4) dopamine receptor [1] was 840 nM; in [6] it was 2560 nM; at D(3) dopamine receptor [2], 190 nM; on D(2) dopamine receptor [7] it was 2.3 nM.
Turning to `O=C1N(Cc2cn(CCF)nn2)CN(c2ccccc2)C12CCN(Cc1coc3ccccc13)CC2`, the Ki at D(4) dopamine receptor [3] came to 978 nM; on D(3) dopamine receptor [4] it was 0.9 nM; on D(2) dopamine receptor [5], 2 nM.
Turning to `OC1(c2ccc(Br)cc2)CCN(Cc2c[nH]c3ccccc23)CC1`, the Ki is 652 nM on D(4) dopamine receptor [1], 12.1 nM in assay [6], 110 nM on D(3) dopamine receptor [2] and 4.8 nM on D(2) dopamine receptor [7].
With `COc1cccc2[nH]cc(CN3CCC(O)(c4ccc(Cl)cc4)CC3)c12`, the inhibition constant Ki is > 2000 nM at D(4) dopamine receptor [1], > 5000 nM in assay [6], 250 nM at D(3) dopamine receptor [2] and 4.2 nM at D(2) dopamine receptor [7].
As for `COc1ccc2[nH]cc(CN3CCC(O)(c4ccc(Cl)cc4)CC3)c2c1`, the Ki on D(4) dopamine receptor [1] is > 3500 nM; in assay [6], 242 nM; at D(3) dopamine receptor [2] it was 204 nM; at D(2) dopamine receptor [7], 4.2 nM.
As for `CSc1ccc(C2(O)CCN(Cc3c[nH]c4ncccc34)CC2)cc1`, the Ki on D(4) dopamine receptor [3] was determined as 937 nM; on D(3) dopamine receptor [4], 4940 nM; on D(2) dopamine receptor [5] it was 254 nM.
Consider `OC1(c2ccc(I)cc2)CCN(Cc2cc3ccccc3o2)CC1`, for which the inhibition constant (Ki) stood at 245 nM at D(4) dopamine receptor [3] and 49 nM at D(3) dopamine receptor [4].
As to `OC1(c2ccccc2)CCN(Cc2cc3ccccc3s2)CC1`, the Ki in [8] amounted to 2.13 nM; at D(3) dopamine receptor [4], 142 nM; on D(2) dopamine receptor [5], 46.8 nM.
With `COc1ccc2[nH]cc(CN3CCC(O)(c4ccc(I)cc4)CC3)c2c1`, the result at D(2) dopamine receptor [9] was Active. Moreover, the results for the Ki at D(4) dopamine receptor [3], on D(3) dopamine receptor [4] and at D(2) dopamine receptor [5] were 129 nM, 100 nM and 0.9 nM, respectively.
For the compound `OC1(c2ccc(Br)cc2)CCN(Cc2c[nH]c3ccc(OCCF)cc23)CC1`, the Ki at D(4) dopamine receptor [3] came out at 344 nM; on D(3) dopamine receptor [4], 188 nM.
`OC1(c2ccc(Br)cc2)CCN(Cc2coc3ccccc23)CC1`: the inhibitory constant (Ki) on D(3) dopamine receptor [4] was determined as 10.9 nM; at D(2) dopamine receptor [5], 6.6 nM.
As for `OC1(c2ccc(I)cc2)CCN(Cc2c[nH]c3ncccc23)CC1`, the inhibition constant Ki amounted to 634 nM at D(4) dopamine receptor [3], 1590 nM at D(3) dopamine receptor [4] and 61 nM on D(2) dopamine receptor [5].
With `COc1cccc2[nH]cc(CN3CCC(O)(c4ccc(I)cc4)CC3)c12`, the outcome at D(2) dopamine receptor [9] was Active. Moreover, the affinity on D(3) dopamine receptor [4] corresponds to a Ki of 122 nM.
On to `OC1(c2ccc(I)cc2)CCN(Cc2c[nH]c3ccccc23)CC1`, for which, on D(2) dopamine receptor [5], the Ki worked out at 3.8 nM. This lies in the single-digit nanomolar range.
Consider `COc1ccc2[nH]cc(CN3CCC(O)(c4ccccc4)CC3)c2c1`, for which the inhibitory constant (Ki) is > 10000 nM on D(4) dopamine receptor [3], 2930 nM at D(3) dopamine receptor [4] and 1400 nM at D(2) dopamine receptor [5].
With `O=C1N(CCF)CN(c2ccccc2)C12CCN(Cc1coc3ccccc13)CC2`, the results for the Ki at D(4) dopamine receptor [3], at D(3) dopamine receptor [4] and at D(2) dopamine receptor [5] were 945 nM, 9.3 nM and 8 nM, respectively.
